Data reported in patent publication US10526320B2, “Pyrrolidine derivatives as PPAR agonists” (GUANGDONG RAYNOVENT BIOTECH CO., LTD., priority 2016, dated 2020).
Read-outs that look alike come from different tables or passages of the source.

Tests used:
[1] = target: T1, PPAR Alpha (Homo sapiens, UniProt Q07869); assay: PathHunter NHR protein interaction / nuclear translocation agonist test, PPAR Alpha; format: cell-based; conditions: for Emax: read-out: PPAR Alpha Maximum Activation Response %
T1 sequence (Q07869 1-468): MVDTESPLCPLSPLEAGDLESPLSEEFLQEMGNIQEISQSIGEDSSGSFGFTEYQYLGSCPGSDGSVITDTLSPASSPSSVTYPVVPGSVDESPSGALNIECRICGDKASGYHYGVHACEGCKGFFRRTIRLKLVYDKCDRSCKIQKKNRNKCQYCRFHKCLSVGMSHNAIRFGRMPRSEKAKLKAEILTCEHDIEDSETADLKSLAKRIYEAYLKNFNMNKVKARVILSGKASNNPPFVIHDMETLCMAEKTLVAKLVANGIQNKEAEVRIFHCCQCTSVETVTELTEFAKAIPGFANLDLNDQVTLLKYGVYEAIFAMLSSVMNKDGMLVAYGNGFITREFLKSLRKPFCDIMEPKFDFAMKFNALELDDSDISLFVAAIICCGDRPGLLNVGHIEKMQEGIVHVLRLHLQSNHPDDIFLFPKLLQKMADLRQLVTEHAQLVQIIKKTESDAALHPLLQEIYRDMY

[2] = target: T2, PPAR Delta (Homo sapiens, UniProt Q03181); assay: PathHunter NHR protein interaction / nuclear translocation agonist test, PPAR Delta; format: cell-based; conditions: for Emax: read-out: PPAR Delta Maximum Activation Response %
T2 sequence (Q03181 1-441): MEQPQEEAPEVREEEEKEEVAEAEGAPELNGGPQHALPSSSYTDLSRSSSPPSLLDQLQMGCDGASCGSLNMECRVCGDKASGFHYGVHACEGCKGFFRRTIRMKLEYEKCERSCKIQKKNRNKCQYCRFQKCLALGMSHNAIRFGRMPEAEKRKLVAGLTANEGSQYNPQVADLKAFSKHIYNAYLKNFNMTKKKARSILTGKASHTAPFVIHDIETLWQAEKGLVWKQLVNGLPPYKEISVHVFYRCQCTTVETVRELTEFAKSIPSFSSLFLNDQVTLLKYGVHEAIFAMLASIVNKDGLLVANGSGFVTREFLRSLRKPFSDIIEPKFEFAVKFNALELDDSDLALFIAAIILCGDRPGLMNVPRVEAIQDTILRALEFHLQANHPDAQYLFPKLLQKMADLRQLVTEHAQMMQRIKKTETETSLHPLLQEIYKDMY

[3] = agonist mode, read-out: PPAR Alpha EC50
[4] = agonist mode, read-out: PPAR Delta EC50
[5] = relative to known PPARδ agonist L-165,041 = 100%

SMILES | EC50 [1, 3] [nM] | Emax [1] [%] | EC50 [2, 4] [nM] | Emax [2] [%] | other results
CSc1ccc(C(=O)[C@H]2CN(C(=O)Oc3cnn(C)c3)C[C@@H]2Cc2cc(C)c(OC(C)(C)C(=O)O)c(C)c2)cc1 (racemic) [Compound 48] | < 100 | 50 to 80 | 100 to 150 | 50 to 80 | –
CSc1ccc(C(=O)C2CN(C(=O)OC3CCCC3)CC2CCc2cc(C)c(OC(C)(C)C(=O)O)c(C)c2)cc1 (single isomer, unassigned) [Compound 74] | < 100 | 80 to 100 | 100 to 150 | – | Emax [2, 5]: 80 to 100%
CSc1ccc(C(=O)C2CN(C(=O)Oc3ccccc3)CC2Cc2cccc(OC(C)(C)C(=O)O)c2)cc1 (single isomer, unassigned) [Compound 49] | – | – | 100 to 150 | 50 to 80 | –
CSc1ccc(C(=O)C2CN(C3COC3)C[C@@H]2CCc2cc(C)c(OC(C)(C)C(=O)O)c(C)c2)cc1 (mixture of isomers) [Compound 73] | 200 to 250 | 80 to 100 | > 250 | – | Emax [2, 5]: 80 to 100%
COCCN1CC(CCc2cc(C)c(OC(C)(C)C(=O)O)c(C)c2)C(C(=O)c2ccc(SC)cc2)C1 (stereo not drawn) [Compound 59] | 200 to 250 | 50 to 80 | 200 to 250 | – | Emax [2, 5]: 50 to 80%
CSc1ccc(C(=O)[C@@H]2CN(C(=O)Oc3ccc(C(C)C)cc3)C[C@H]2c2cc(C)c(OC(C)(C)C(=O)O)c(C)c2)cc1 (single isomer, unassigned) [Compound 40] | < 100 | 80 to 100 | 100 to 150 | – | Emax [2, 5]: 80 to 100%
COC(=O)N1CC(Cc2ccc(SC)cc2)C(c2cc(C)c(OC(C)(C)C(=O)O)c(C)c2)C1 (single isomer, unassigned) [Compound 22] | > 250 | < 50 | – | – | –
CSc1ccc(C(=O)C2CN(C(=O)Oc3ccc(F)cc3)CC2c2cc(C)c(OC(C)(C)C(=O)O)c(C)c2)cc1 (single isomer, unassigned) [Compound 35] | 200 to 250 | 80 to 100 | 150 to 200 | 50 to 80 | –
CCOC(=O)N1CC(C(=O)c2ccc(SC)cc2)C(c2cc(C)c(OC(C)(C)C(=O)O)c(C)c2)C1 (single isomer, unassigned) [Compound 6] | > 250 | 50 to 80 | – | – | –
Cc1cc(CCC2CN(C(=O)Oc3ccccc3)CC2C(=O)c2ccccc2)cc(C)c1OC(C)(C)C(=O)O (single isomer, unassigned) [Compound 62] | 100 to 150 | 80 to 100 | 100 to 150 | – | Emax [2, 5]: 80 to 100%
CSc1ccc(C(=O)C2CN(C(=O)OCc3ccccc3)CC2c2cc(C)c(OC(C)(C)C(=O)O)c(C)c2)cc1 (single isomer, unassigned) [Compound 8] | > 250 | 50 to 80 | – | – | –
CSc1ccc(C(=O)[C@@H]2CN(C(C)=O)C[C@H]2CCc2cc(C)c(OC(C)(C)C(=O)O)c(C)c2)cc1 (racemic) [Compound 71] | 200 to 250 | 80 to 100 | 150 to 200 | 80 to 100 | –
CSc1ccc(C(=O)[C@@H]2CN(C(=O)Oc3ccccc3)C[C@H]2CCc2cc(C)c(OC(C)(C)C(=O)O)c(C)c2)cc1 (single isomer, unassigned) [Compound 52] | < 100 | – | < 100 | – | –
CSc1ccc(C(=O)[C@H]2CN(Cc3ccccc3)C[C@@H]2c2cc(C)c(OC(C)(C)C(=O)O)c(C)c2)cc1 (racemic) [Compound 2] | > 250 | < 50 | – | – | –
CSc1ccc(C(=O)[C@H]2CN(C(=O)Nc3ccc(Cl)cc3)C[C@@H]2c2cc(C)c(OC(C)(C)C(=O)O)c(C)c2)cc1 (racemic) [Compound 37] | < 100 | 80 to 100 | 200 to 250 | 50 to 80 | –
CSc1ccc(C(=O)C2CN(C(=O)Oc3ccc(Br)cc3)CC2Cc2cc(C)c(OC(C)(C)C(=O)O)c(C)c2)cc1 (stereo not drawn) [Compound 29] | < 100 | 80 to 100 | < 100 | 80 to 100 | –
CSc1ccc(C(=O)C2CN(C(=O)Oc3ccc(Cl)cc3)CC2c2cccc(OC(C)(C)C(=O)O)c2)cc1 (single isomer, unassigned) [Compound 33] | 200 to 250 | 80 to 100 | > 250 | 50 to 80 | –
CSc1ccc(C(=O)[C@@H]2CN(C(=O)Oc3ccccc3)C[C@H]2CCc2cc(C)c(OC(C)(C)C(=O)O)c(C)c2)cc1 (single isomer, unassigned) [Compound 51] | < 100 | – | < 100 | 80 to 100 | –

SMILES | EC50 [1, 3] [nM] | Emax [1] [%] | EC50 [2, 4] [nM] | Emax [2] [%] | other results
CSc1ccc(C(=O)C2CN(C(=O)c3ccccc3)CC2c2cc(C)c(OC(C)(C)C(=O)O)c(C)c2)cc1 (single isomer, unassigned) [Compound 16] | > 250 | 80 to 100 | – | – | –
CSc1ccc(C(=O)C2CN(C(=O)Oc3cccc(Cl)c3)CC2c2cc(C)c(OC(C)(C)C(=O)O)c(C)c2)cc1 (single isomer, unassigned) [Compound 38] | < 100 | 80 to 100 | 150 to 200 | – | –
COC(=O)N1CC(Cc2ccc(SC)cc2)C(c2cc(C)c(OC(C)(C)C(=O)O)c(C)c2)C1 (single isomer, unassigned) [Compound 23] | > 250 | – | – | – | –
CSc1ccc(C(=O)[C@@H]2CN(S(C)(=O)=O)C[C@H]2CCc2cc(C)c(OC(C)(C)C(=O)O)c(C)c2)cc1 (single isomer, unassigned) [Compound 75] | > 250 | 80 to 100 | 200 to 250 | – | Emax [2, 5]: 80 to 100%
CSc1ccc(C(=O)C2CN(C(=O)Oc3ccccc3)CC2Cc2cccc(OC(C)(C)C(=O)O)c2)cc1 (single isomer, unassigned) [Compound 50] | – | – | 150 to 200 | – | PPAR Delta Maximum Activation Response % [2]: II (key: 100% ≥ I ≥ 80%; 80% ≥ II ≥ 50%; III < 50%)
CSc1ccc(C(=O)[C@@H]2CN(C(=O)Oc3ccc(Cl)cc3Cl)C[C@H]2c2cc(C)c(OC(C)(C)C(=O)O)c(C)c2)cc1 (single isomer, unassigned) [Compound 41] | < 100 | 80 to 100 | < 100 | – | Emax [2, 5]: 80 to 100%
CSc1ccc(C(=O)C2CN(C(C)=O)CC2c2cc(C)c(OC(C)(C)C(=O)O)c(C)c2)cc1 (single isomer, unassigned) [Compound 21] | > 250 | 80 to 100 | > 250 | 50 to 80 | –
CSc1ccc(C(=O)C2CN(C(=O)Oc3ccc(Cl)cc3)CC2Cc2cc(C)c(OC(C)(C)C(=O)O)c(C)c2)cc1 (single isomer, unassigned) [Compound 27] | < 100 | 80 to 100 | < 100 | 50 to 80 | –
CSc1ccc(C(=O)[C@H]2CN(C)C[C@@H]2c2cc(C)c(OC(C)(C)C(=O)O)c(C)c2)cc1 (racemic) [Compound 1] | > 250 | < 50 | – | – | –
CSc1ccc(C(=O)[C@H]2CN(C(=O)Oc3ccccc3)C[C@@H]2CCc2cc(C)c(OC(C)(C)C(=O)OC(C)C)c(C)c2)cc1 (single isomer, unassigned) [Compound 61] | – | < 50 | – | < 50 | EC50 ([1]; PPAR Alpha EC50 nM): > 250 nM; EC50 ([2]; PPAR Delta EC50 nM): > 250 nM
CSc1ccc(C(=O)C2CN(C(=O)OC(C)C)CC2c2cc(C)c(OC(C)(C)C(=O)O)c(C)c2)cc1 (single isomer, unassigned) [Compound 7] | > 250 | 50 to 80 | > 250 | 50 to 80 | –
CSc1ccc(C(=O)C2CN(S(C)(=O)=O)CC2c2cc(C)c(OC(C)(C)C(=O)O)c(C)c2)cc1 (single isomer, unassigned) [Compound 18] | 200 to 250 | 80 to 100 | > 250 | – | Emax [2, 5]: 50 to 80%
CSc1ccc(C(=O)C2CN(C(=O)Oc3ccccc3)CC2c2cccc(OC(C)(C)C(=O)O)c2)cc1 (stereo not drawn) [Compound 24] | – | – | > 250 | 80 to 100 | –
COC(=O)N1C[C@@H](C(=O)c2ccc(SC)cc2)[C@H](c2cc(C)c(OC(C)(C)C(=O)O)c(C)c2)C1 (single isomer, unassigned) [Compound 4] | > 250 | – | – | – | PPAR Alpha Maximum Activation Response % [1]: III (key: 100% ≥ I ≥ 80%; 80% ≥ II ≥ 50%; III < 50%)
CSc1ccc(C(=O)[C@H]2CNC[C@@H]2c2cc(C)c(OC(C)(C)C(=O)O)c(C)c2)cc1 (racemic) [Compound 3] | > 250 | < 50 | – | – | –
CSc1ccc(C(=O)C2CN(C(=O)c3ccccc3)CC2c2cc(C)c(OC(C)(C)C(=O)O)c(C)c2)cc1 (single isomer, unassigned) [Compound 17] | > 250 | – | – | – | –
CC(C)(Sc1ccc(CCN(CCCCC2CCCCC2)C(=O)NC2CCCCC2)cc1)C(=O)O [GW7647, reference compound] | – | – | – | – | Emax ([1]; reference agonist, indicated to be 100% (Note 1)): 100%
